Results taken from the supplement of paper PMC8617591.

How the values were obtained:
[1] = tested on: Mycobacterium tuberculosis Erdman (autoluminescent); assay: Einf, fitted maximum growth inhibition of three-drug combination (fraction); higher = stronger maximal inhibition
Description: (§1)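 DiaMOND equipotent three-drug combination dose responses (10 doses, 1.5- or 2-fold spacing, centred on IC90) against autoluminescent M. tuberculosis Erdman in 8 in vitro models. Read-out is OD600, or luminescence for the intracellular and dormancy models, normalised to untreated wells. Hill-fit Einf, AUC25 and GRinf are potency metrics; FIC50 and FIC90 are total Loewe fractional inhibitory concentrations as log2 (negative = synergy).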

[2] = tested on: Mycobacterium tuberculosis Erdman (autoluminescent); assay: AUC25, normalised area under dose response up to IC25 (three-drug combination) (fraction (0-1)); higher = more potent at low dose
Description: as §1

[3] = tested on: Mycobacterium tuberculosis Erdman (autoluminescent); assay: GRinf, maximum normalised growth rate inhibition (three-drug combination) (unitless (-1 to 1)); higher = less effect (negative = killing)
Description: as §1

[4] = tested on: Mycobacterium tuberculosis Erdman (autoluminescent); assay: total FIC90 (Loewe) at 90% inhibition, three-drug combination (log2); higher = more antagonistic
Description: as §1

[5] = tested on: Mycobacterium tuberculosis Erdman (autoluminescent); assay: total FIC50 (Loewe) at 50% inhibition, three-drug combination (log2); higher = more antagonistic
Description: as §1

COc1c(N2C[C@@H]3CCCN[C@@H]3C2)c(F)cc2c(=O)c(C(=O)O)cn(C3CC3)c12 [moxifloxacin] + O=[N+]([O-])c1cn2c(n1)OC[C@@H](OCc1ccc(OC(F)(F)F)cc1)C2 [pretomanid] + CO[C@H]1/C=C/O[C@@]2(C)Oc3c(C)c(O)c4c(O)c(c(/C=N/N5CCN(C6CCCC6)CC5)c(O)c4c3C2=O)NC(=O)/C(C)=C\C=C\[C@H](C)[C@H](O)[C@@H](C)[C@@H](O)[C@@H](C)[C@H](OC(C)=O)[C@@H]1C [rifapentine]
Conditions	AUC25, [2]	Einf, [1]	GRinf, [3]	total FIC50, [5]	total FIC90, [4]
in vitro model: acidic pH 5.7, time point: constant (~7 days, model-specific)	0.0693	0.874	-0.139	0.708	–
in vitro model: acidic pH 5.7, time point: terminal (~4-5 doublings, model-specific)	0.0354	0.971	-0.106	0.952	0.554
in vitro model: intracellular J774, time point: constant = terminal	–	0.964	-0.179	–	0.252

Conditions	AUC25, [2]	Einf, [1]	GRinf, [3]	total FIC50, [5]	total FIC90, [4]
in vitro model: butyrate, time point: constant (~7 days, model-specific)	0.099	0.918	-0.00663	0.501	0.722
in vitro model: butyrate, time point: terminal (~4-5 doublings, model-specific)	0.0765	0.963	-0.00653	0.582	0.784
in vitro model: cholesterol 0.05 mM, time point: constant (~7 days, model-specific)	0.111	0.713	-0.172	0.593	–
in vitro model: cholesterol 0.05 mM, time point: terminal (~4-5 doublings, model-specific)	0.0851	0.89	-0.186	1.01	1.21
in vitro model: cholesterol-high 0.2 mM, time point: constant (~7 days, model-specific)	0.0549	0.877	-0.142	0.887	0.511
in vitro model: cholesterol-high 0.2 mM, time point: terminal (~4-5 doublings, model-specific)	0.04	0.988	-0.672	1.15	0.705
in vitro model: dormancy (butyrate + nitrate, low O2), time point: constant (~7 days, model-specific)	0.0589	0.89	0.213	0.874	0.639
in vitro model: dormancy (butyrate + nitrate, low O2), time point: terminal (~4-5 doublings, model-specific)	0.0483	0.98	-0.128	1.17	1.14
in vitro model: standard 7H9 glycerol, time point: constant = terminal	0.0568	0.928	-0.0296	0.55	0.207
in vitro model: valerate, time point: constant (~7 days, model-specific)	0.116	0.89	0.0703	0.213	–
in vitro model: valerate, time point: terminal (~4-5 doublings, model-specific)	0.0723	0.941	0.0683	0.631	0.879

COc1c(N2C[C@@H]3CCCN[C@@H]3C2)c(F)cc2c(=O)c(C(=O)O)cn(C3CC3)c12 [moxifloxacin] + O=[N+]([O-])c1cn2c(n1)OC[C@@H](OCc1ccc(OC(F)(F)F)cc1)C2 [pretomanid] + CO[C@H]1/C=C/O[C@@]2(C)Oc3c(C)c(O)c4c(O)c(c(/C=N/N5CCN(C)CC5)c(O)c4c3C2=O)NC(=O)/C(C)=C\C=C\[C@H](C)[C@H](O)[C@@H](C)[C@@H](O)[C@@H](C)[C@H](OC(C)=O)[C@@H]1C [rifampicin]
Conditions	AUC25, [2]	Einf, [1]	GRinf, [3]	total FIC50, [5]	total FIC90, [4]
in vitro model: acidic pH 5.7, time point: constant (~7 days, model-specific)	0.0717	0.875	-0.146	0.484	–
in vitro model: acidic pH 5.7, time point: terminal (~4-5 doublings, model-specific)	0.0448	0.974	-0.163	0.652	0.221
in vitro model: intracellular J774, time point: constant = terminal	–	0.979	-0.304	–	0.0806

Conditions	AUC25, [2]	Einf, [1]	GRinf, [3]	total FIC50, [5]	total FIC90, [4]
in vitro model: butyrate, time point: constant (~7 days, model-specific)	0.0923	0.912	0.0241	0.355	0.227
in vitro model: butyrate, time point: terminal (~4-5 doublings, model-specific)	0.085	0.962	0.00652	0.25	0.434
in vitro model: cholesterol 0.05 mM, time point: constant (~7 days, model-specific)	0.0931	0.606	-0.000182	0.67	–
in vitro model: cholesterol 0.05 mM, time point: terminal (~4-5 doublings, model-specific)	0.0743	0.858	-0.0705	1.14	-0.636
in vitro model: cholesterol-high 0.2 mM, time point: constant (~7 days, model-specific)	0.0701	0.849	-0.468	0.869	1.29
in vitro model: cholesterol-high 0.2 mM, time point: terminal (~4-5 doublings, model-specific)	0.0765	0.996	-0.801	0.954	0.992
in vitro model: dormancy (butyrate + nitrate, low O2), time point: constant (~7 days, model-specific)	0.0676	0.883	0.23	0.689	0.327
in vitro model: dormancy (butyrate + nitrate, low O2), time point: terminal (~4-5 doublings, model-specific)	0.0531	0.965	-0.0626	0.662	0.913
in vitro model: standard 7H9 glycerol, time point: constant = terminal	0.0625	0.883	0.162	0.125	–
in vitro model: valerate, time point: constant (~7 days, model-specific)	0.0778	0.847	0.0569	0.325	–
in vitro model: valerate, time point: terminal (~4-5 doublings, model-specific)	0.0459	0.924	0.0455	0.877	0.41
